Values quoted from earlier work as cited in article PMC9063426, “MAP kinases differentially bind and phosphorylate NOS3 via two unique NOS3 sites” (FEBS Open Bio, 2022).
Where no end group is shown, it is not given here.

Experiments:
NOS3 = settings: endothelial cells, inhibition and dominant negative experiments, via S114 phosphorylation; ref [10]; cited from earlier work
ERK-NOS3 complexes = system: ERK-NOS3 complexes; set-up: method as in PMID 10899167; settings: BAECs treated with bradykinin; ref [9]; cited from earlier work

## JNK2: JNK2, shown to inhibit cellular NO production
NOS3
  cellular NO production: inhibited cellular NO production

## RPPGFSPFR [bradykinin]
ERK-NOS3 complexes
  effect on ERK-NOS3 complexes: caused ERK to disassociate from NOS3 complexes and over time the complex reassociated
